Patent US20240002520A1, “TREATMENT OF CASTLEMAN DISEASE” (THE TRUSTEES OF THE UNIVERSITY OF PENNSYLVANIA, priority 2020, published 2024)

Key:
iMCD = details: literature case reports; cited from earlier work
iMCD patients [1] = assay: Siltuximab phase II study (NCT01024036): durable symptomatic and tumor response criteria; assay type: in vivo, human
Source text: Clinical and laboratory data were collected at the time of sample draw for iMCD patients. To assess disease activity, we adapted a previously published disease activity score using C-reactive protein, hemoglobin, and albumin.

iMCD patients [2] = details: cited from earlier work
CXCL13 [3] = assay: Serum proteomics (SomaLogic SOMAscan) during siltuximab therapy, phase II study; assay type: in vivo, human
Protocol: Methods. Clinical data and serum samples were collected as part of NCT01024036. We measured serum protein analytes in the 52 subjects who were treated with anti-IL6 therapy, as well as the 26 patients in the control arm, at day 1, day 8, and day 64 of therapy (infusions administered every 21 days). Serum samples from 44 healthy donors were also analyzed. Of the 1,305 analytes measured using SomaLogic SOMAscan, 1,178 passed QC and were included in analyses. Each analyte was log 2 transformed and capped at the 2.5th and 97.5th percentiles. Response to anti-IL6 therapy was determined by independent review in NCT01024036. Data processing was performed using the Medidata Rave Omics machine learning platform and R v3.4.4.
Linear mixed effects models were used to detect whether kinetic changes in protein expression were associated with anti-IL6 response. Upon running the full model with the selected covariates, the p-values of the interaction between time point and response were used to test for differences between responders and nonresponders.
A separate model was fitted using each protein, and False Discovery Rates (FDR) were estimated by the Benjamini-Hochberg method with alpha <0.05.

CXCL13 [4] = assay: Serum CXCL13 levels (absolute quantification, RBM) in validation cohort, siltuximab phase I study; assay type: in vivo, human
Source text: Samples collected in real-world practice were included to better represent the full spectrum of iMCD. We obtained samples from 60 patients with diseases that overlap in clinical and pathological presentation with iMCD, including HHV8-associated MCD (N=20), HL (N=20), and RA (N=20), which are caused by viral, neoplastic, and autoimmune mechanisms, respectively, and 44 healthy individuals. […] All serum samples from the phase I and the phase II studies were collected and processed following respective standardized protocols.
For the 23 samples in the validation cohort, Rules Based Medicine (RBM) DiscoveryMap v1.0 was used to measure 190 serum analytes by a microsphere-based, multiplexed immunoassay platform.^18 RBM values were converted to standardized units and log 2 transformed. Of 190 proteins measured by RBM, 154 can be mapped to targets in the Somalogic platform, and 140 remained for analysis after filtering out low-quality targets on both platforms.
A […] was generated to identify 17% as the optimal reduction in CXCL13 levels to maximize sensitivity and specificity of this indicator (FIGS. 7 & 14). Specifically, if a patient has a 17% or greater reduction in CXCL13 levels, then the patient is highly likely to respond (FIGS. 15-16, Table 4). The proteins from patients in the discovery cohort described supra were quantified using a relative quantification while the protein quantification in the validation described in Table 4 utilized absolute quantification.

CD19+CD27-IgD+B cells = assay: In vitro treatment of flow-sorted iMCD patient B cells, RNA sequencing and geneset enrichment analysis of Hallmark pathways; assay type: cell-based, human; details: serum plus rhCXCL13 compared to serum only
Protocol: An in vitro experiment was performed that included flow sorting CD19+CD27-IgD+B cells from peripheral blood mononuclear cells (PBMCs) derived from an iMCD patient and treating the CD19+CD27-IgD+B cells with either (A) serum only, (B) serum plus recombinant human CXCL13 (rhCXCL13) to assess the effects of CXCL13 on iMCD patient B cells, or (C) serum, rhCXCL13, and anti-CXCL13 (anti-CXCL13) antibody to assess the effects of this blocking antibody. Each of these samples had geneset enrichment analysis performed of the Hallmark pathways on RNA sequencing data.

[5] = Non-Responders (N = 13), Day 43

C=CC[C@@H]1/C=C(\C)C[C@H](C)C[C@H](OC)[C@H]2O[C@@](O)(C(=O)C(=O)N3CCCC[C@H]3C(=O)O[C@H](/C(C)=C/[C@@H]3CC[C@@H](O)[C@H](OC)C3)[C@H](C)[C@@H](O)CC1=O)[C@H](C)C[C@@H]2OC [tacrolimus]
reported activity in iMCD (iMCD): potential activity

siltuximab
patients with lymph node response by Cheson criteria who also achieved durable symptomatic response (iMCD patients [1]): 18 of 20
patients who met response criteria (iMCD patients [2]; Phase II study NCT01024036, assessed after a minimum of 48 weeks): one-third
iMCD patients who did not meet primary response criteria (iMCD patients [2]; siltuximab phase II registrational study): 66%
CXCL13 levels in non-responders (CXCL13 [3]; by day 64): remained elevated
CXCL13 levels in siltuximab responders (CXCL13 [3]; by day 64): decreased to levels approaching the healthy donor range
9 serum proteins (IgA, BCMA, NPS-PLA2, ART, IL-18 BPa, CD5L, b2-Microglobulin, CXCL13, NRP1) in responders compared to non-responders (CXCL13 [3]; day 8, seven days after first siltuximab administration): significantly decreased
CXCL13, Median (IQR) (CXCL13 [4]; Non-Responders (N = 13), Day 22/29, baseline 155 (79, 293)): 249 (73.1, 466) pg/ml
CXCL13, Mean (SD) (CXCL13 [4]; Non-Responders (N = 13), Day 22/29, baseline 234 (240)): 337 (381) pg/ml
CXCL13, Mean (SD) (CXCL13 [4]; [5]): 229.1 (190.3) pg/ml
CXCL13, Median (IQR) (CXCL13 [4]; [5]): 218 (62, 371) pg/ml
CXCL13, Median (IQR) (CXCL13 [4]; Responders (N = 10), Day 22/29, baseline 116 (57, 258)): 41.1 (23.5, 62) pg/ml
CXCL13, Mean (SD) (CXCL13 [4]; Responders (N = 10), Day 22/29, baseline 241 (361)): 71.5 (94.5) pg/ml
CXCL13, Mean (SD) (CXCL13 [4]; Responders (N = 10), Day 43): 94.8 (70.6) pg/ml
CXCL13, Median (IQR) (CXCL13 [4]; Responders (N = 10), Day 43): 94.4 (29.6, 147) pg/ml

B1: rhCXCL13: recombinant human CXCL13 (protein, UniProt O43927 23-109, looked up)
C-X-C motif chemokine 13: VLEVYYTSLRCRCVQESSVFIPRRFIDRIQILPRGNGCPRKEIIVWKKNKSIVCVDPQAEWIQRMMEVLRKRSSSTLPVPVFKRKIP
pathways previously found up-regulated in iMCD (IL6-JAK-STAT3, mTORC1, Interferon alpha response, interferon gamma response, complement, TNFα signaling via NFKb) (CD19+CD27-IgD+B cells): up-regulated
